US20210139610A1, “COMPOSITIONS AND METHODS FOR MEDIATING EPS” (priority 2018, published 2021)
“Also recorded” adds a separate entry of the source.

What was measured:
poly(dG-dC) substrate = poly(dG-dC) substrate nuclease degradation (gel electrophoresis); type: biochemical; details: in presence of protective concentrations of spermidine/polyamines
Protocol: FIG. 32: Z-DNA formation protects DNA from nuclease degradation. A poly(dG-dC) substrate was incubated with salt activated nuclease (SAN) or DNase I in increasing concentrations of NaCl, spermine, or spermidine as indicated above. Degradation products were visualized by gel electrophoresis. High salt and polyamines protect DNA from degradation through conversion to the Z-DNA form.
FIGS. 34A-34B: DNABII proteins protect DNA by shifting to Z-DNA form. (FIG. 34A) A poly(dG-dC) substrate was incubated with DNase I in increasing concentrations of NTHi HU as indicated above. Degradation products were visualized by gel electrophoresis. […] (FIG. 34B) Top: Circular dichroism spectrum of a B-DNA substrate being converted to Z-DNA by increasing concentrations of a Z-DNA catalyst (adapted from Rahmouni (1992) Mol Microbiol. 6(5):569-72). Note inversion of negative peak around 250 nm and positive peak around 280 nm. Bottom: Poly(dGdC) DNA (5 μg) was incubated with HU (15 μM) for 2 h and CD spectra collected.
FIG. 41: HMGB1 reverts polyamine-induced Z-DNA to a nuclease sensitive B-DNA state. A poly(dG-dC) substrate was incubated with spermidine and HMGB1. Degradation products were visualized by gel electrophoresis.

[1] = test system: Z-DNA and B-DNA in the NTHI biofilm extracellular matrix; test: Immunofluorescence CLSM for Z-DNA / B-DNA in NTHI biofilms; type: cell-based, Non-typeable Haemophilus influenzae; details: HMGB1 treatment at 24 h, read at 40 h
Protocol: FIG. 31: DNase degrades B-DNA, but not Z-DNA, within the biofilm extracellular matrix. DNase (Pulmozyme; 5 units) was added at 24 h after biofilm seeding to in vitro pre-formed NTHI biofilms.
FIG. 37: HMGB1 destabilizes Z-DNA structures in the biofilm extracellular matrix. Non-typeable Haemophilus influenzae biofilms were grown in supplemented BHI media in 8 well chambered coverglass slides at 37° C. and 5% CO2. After 24 h, biofilms were treated as indicated above. After 40 h, biofilms were washed, probed with primary antibodies directed against Z-DNA (light gray dots), a fluorescent secondary antibody, stained with DAPI (gray regions), and visualized via fluorescence microscopy.
FIGS. 50A-50B: Equilibrium shift of B-DNA to Z-DNA conversion alters biofilm formation. NTHI biofilms formed for 24 h were incubated with cerium chloride (CeCl3) or chloroquine for an additional 16 h and were probed with naive or anti-Z-DNA (white) by immunofluorescence CLSM.
FIGS. 51A-51B: Equilibrium shift of B-DNA to Z-DNA conversion alters biofilm formation. NTHI biofilms formed for 24 h were incubated with cerium chloride (CeCl3) (FIG. 51A) or chloroquine (FIG. 51B) for an additional 16 h. Z-DNA was measured by IF and CLSM using anti-Z-DNA and cells were stained with the membrane stain FM4-64. Bars represent the SEM. Statistical significance compared to control was assessed by paired t-tests, *P<0.05, **P<0.01.

[2] = test system: NTHI biofilms in the middle ear; test: Chinchilla model of otitis media due to NTHI, middle ear biofilm scoring; type: in vivo; details: 5 μg to middle ears at 4 and 5 days post infection, scored 24 h later
Protocol: FIGS. 39A-39B: HMGB1 promotes biofilm resolution in an experimental model (chinchilla host) of OM. Diluent or 5 μg rHMGB1 or mHMGB1 were delivered directly to middle ears of chinchillas at 4 and 5 days post infection with NTHI. Animals were sacrificed 24 h later, and their middle ears were imaged (FIG. 39A) and blindly scored (FIG. 39B) based on the criteria described in the bottom of (FIG. 39A). Bars represent SEM. ***P<0.001.

B. cenocepacia biofilms = test: Burkholderia cenocepacia in vitro biofilm disruption (COMSTAT); type: cell-based; details: 5 mg/mL HMGB1 at 24 h, total 40 h
Protocol: (§1) (FIG. 40A) B. cenocepacia biofilms were grown in LB media in 8 well chambered coverglass slides at 37° C. and 5% CO2. After 24 h, biofilms were treated 5 mg/mL HMGB1. After a total of 40 h, biofilms were stained with LIVE/DEAD®, visualized via CLSM and analyzed by COMSTAT. Bars represent the SEM. (FIG. 40B) C57BL/6 mice were infected with 10^7 CFU i.t., and simultaneously received 5 mg rHMGB1 or mHMGB1, a C45 S non-inflammatory variant. Aggregates of B. cenocepacia were visible by fluorescence microscopy in sections probed with an α-B. cenocepacia antibody (gray). After 18 h, (FIG. 40C) CFUs were quantified in BAL. Bars represent SD. *P<0.05, ***P<0.001.

B. cenocepacia = test: Mouse lung infection with B. cenocepacia (aggregates, CFU in BAL); type: in vivo, C57BL/6 mice; details: 10^7 CFU i.t. with simultaneous 5 mg rHMGB1 or mHMGB1, 18 h
Protocol: as §1

DNABII proteins = DNABII proteins in NTHI biofilm and culture media (immunofluorescence, Western blot); type: cell-based, Non-typeable Haemophilus influenzae; details: HMGB1 treatment at 24 h, read at 40 h
Protocol: FIGS. 38A-38C: HMGB1 displaces DNABII proteins thereby disrupting NTHI biofilms. Non-typeable Haemophilus influenzae biofilms were grown in supplemented BHI media in 8 well chambered coverglass slides at 37° C. and 5% CO2. After 24 h, biofilms were treated as indicated. (FIG. 38A) After 40 h, biofilms were washed, probed with primary antibodies directed against DNABII proteins (light gray dots), a fluorescent secondary antibody, stained with DAPI (gray regions), and visualized via fluorescence microscopy. (FIG. 38B) Media from biofilm cultures was collected and analyzed via Western blot with a primary antibody that recognizes DNABII proteins. […] (FIG. 38C) COMSTAT quantification NTHI biofilms stained with LIVE/DEAD® and visualized with confocal microscopy after treatment with 5 mg/mL HMGB1.

preformed NTHI biofilms = test: Disruption of pre-formed NTHI biofilms (treatment after initial growth; LIVE/DEAD, CLSM, COMSTAT); type: cell-based, Non-typeable Haemophilus influenzae; details: 5 mg/mL HMGB1, treated at 24 h

## HMGB1: high mobility group box 1 protein, eukaryotic chromatin protein of 215 amino acids
poly(dG-dC) substrate
  nuclease sensitivity of poly(dG-dC) substrate: restored nuclease sensitivity to spermidine-induced Z-DNA substrates
[1]
  Z-DNA content of NTHI biofilm matrix: diminished Z-DNA content; also recorded: reduced Z-DNA structures in the biofilm matrix
[2]
  resolution of middle ear NTHI biofilms: efficient resolution of adherent biofilms; also recorded: promoted clearance of pre-existing NTHI biofilms in situ
B. cenocepacia biofilms
  B. cenocepacia biofilm disruption in vitro: effective at disrupting biofilms formed in vitro by Burkholderia cenocepacia; also recorded: disrupts Burkholderia cenocepacia biofilms
B. cenocepacia
  B. cenocepacia aggregate biofilm in lungs: prevented B. cenocepacia aggregate biofilm formation in the lungs of mice; also recorded: significantly disrupts B. cenocepacia biofilms in situ
DNABII proteins
  DNABII proteins in / released from the biofilm matrix: DNABII proteins were released from the biofilm; also recorded: displaced DNABII proteins from the biofilm matrix
Preformed NTHI biofilms
  NTHI biofilm disruption: significant biofilm disruption; also recorded: disrupts biofilms by displacing DNABII proteins
